Laboratory results taken from patent publication US20090118223A1, “Novel 2'-c-methyl and 4'c-methyl nucleoside derivatives” (priority 2005, published 2009).
Counter-ions that a name gives are not always drawn.

Experiments:
[1] = tested on: HCV replication in human liver tissue; experiment: HCV-infected human liver slice assay (Example F); assay type: cell-based; details: for amount of HCV RNA released into the culture medium from 48-72 h: treatment of HCV-infected human liver slices for 72 h
Protocol: Inhibition of HCV replication in human liver tissue was evaluated using the following assay.
Liver from a brain-dead HCV antibody-positive human patient was perfused with ice-cold Viaspan (Dupont Pharmaceutical) preservation solution and received on ice in Viaspan.
Precision-cut liver slices of 200-250 μm thickness and […] diameter were prepared and cultured in Waymouth's cell culture medium (Gibco, Inc.) that was supplemented with 10% fetal bovine serum and 10 mL/L Fungi-Bact at 37° C., and gassed with carbogen (95% O2, 5% CO2) at 0.75 liters/min. Tissue slices were maintained in culture for 72 h. Cell culture medium containing test compound in solution was changed on a daily basis.
At appropriate times of liver slice incubation, liver slices and medium were collected for analysis of HCV RNA (tissue and medium) and nucleotide levels (NTP). All collected media and tissue slices were maintained in liquid N2 until analysis.
Medium and tissue samples were analyzed for HCV RNA levels according to published procedures (Bonacini et. al., 1999) which utilize an automated, multicycle, polymerase chain reaction (PCR)-based technique. This assay has a lower limit of detection for HCV RNA of 100 viral copies/ml.
Frozen liver slices were disrupted by using a combination of ultrasound probe sonication, Branson Sonifier 450 (Branson Ultrasonics, Danbury, Conn.) and homogenization using a Dounce conical pestle in 200 μls of 10% (v/v) perchloric acid (PCA). After a […] centrifugation at 2,500×g, the supernatants were neutralized using 3 M KOH/3 M KHCO3 and mixed thoroughly. The neutralized samples were centrifuged at 2,500 g for 5 min and NTP levels were determined by ion exchange phase HPLC (Hewlett Packard 1050) using a Whatman Partisil 5 SAX (5 μm, 4.6×250 mm) column. […] Nucleoside triphosphates were eluted from the column using a linear gradient to 80% 1 M ammonium phosphate pH 3.5/6% ethanol buffer, at a flow rate of 1.25 mL/min and detected by UV absorbance (254 nm).

[2] = Liver targeting of 2′-C-methylcytidine and its prodrugs in rats: liver NTP vs plasma nucleoside (Example K); assay type: in vivo; details: male Sprague-Dawley rats, intraperitoneal, 5 mg/kg nucleoside equivalents
Protocol: The liver specificity of the prodrug compounds 35.3, 35.4, and 35.5 was compared relative to the parent nucleoside, 2′-C-methylcytidine, by measuring the generation of NTP in the liver compared to nucleoside in the plasma.
Prodrug compounds 35.3, 35.4, 35.5, 38.3, 38.6, 40.1, 40.6, 40.7, 40.8, 41.2 or 2′-C-methylcytidine were administered intraperitoneally to male Sprague-Dawley rats at a dose of 5 mg/kg based on nucleoside equivalents (5 mg/kg 2′-C-methylcytidine and ˜7-10 mg/kg prodrug compounds). Plasma concentrations of 2′-C-methylcytidine and the liver concentrations of the 5′-triphosphate of 2′-C-methylcytidine were measured by LC-MS using the standard ion-pairing chromatography methods for nucleoside and triphospliate, respectively, as described in Example E. Conventional SAX HPLC-UV could not differentiate between endogenous CTP and 2′-C-methylcytidine triphosphate.

C[C@@]1(O)[C@H](O)[C@@H](COP2(=O)OCC[C@H](c3cccc(Cl)c3)O2)O[C@H]1n1ccc2c(=O)[nH]c(N)nc21 (stereo partly drawn) (as salt: trifluoroacetic acid salt) [Compound 17.10, 2-amino-7-(cis-5′-O-[4-(R)-(3-chlorophenyl)-2-oxo-1,3,2-dioxaphosphorinan-2-yl]-2′-C methyl-beta-D-ribofuranosyl)-7H-pyrrolo[2,3-d]pyrimidin-4(3H)-one trifluoroacetic acid salt]
melting point: 170 to 180 °C

C[C@@]1(O)[C@H](O)[C@@H](CO[P@]2(=O)OCC[C@H](c3cccc(Cl)c3)O2)O[C@H]1n1cnc2c(=O)[nH]c(N)nc21 (relative stereo) [Compound 19, cis-5′-O-[4-(3-Chlorophenyl)-2-oxo-1,3,2-dioxaphosphorinan-2-yl]-2′-C-methylguanosine]
lowering viral RNA production in the culture medium, prodrug compared with nucleoside 2′-C-methylguanosine ([1]; HCV-infected human liver slices, 72 h): more effective | amount of HCV RNA released into the culture medium from 48-72 h [1]: decreased

CC(C)[C@H](N)C(=O)O[C@@H]1[C@@H](CO[P@@]2(=O)OCC[C@@H](c3cccc(Cl)c3)O2)O[C@@H](n2ccc(N)nc2=O)[C@]1(C)O.O=C(O)C(F)(F)F (relative stereo) [Compound 41.2, cis-5′-O-[4-(S)-(3-Chlorophenyl)-2-oxo-1,2,3-dioxaphosphorin-2-yl]-2′-C-methyl-3′-(L-valinyl)cytidine trifluoroacetic acid salt]
Liver Targeting Index (Liver/Plasma) [2]: 302 | Cmax ([2]; 2′-C-methylcytidine): 340 nM | Prodrug Improvement (Fold) ([2]; liver targeting over free nucleoside): 4081 Fold

C[C@@]1(O)[C@H](O)[C@@H](CO)O[C@H]1n1cnc2c(=O)[nH]c(N)nc21 [2′-C-methylguanosine, reference compound]
amount of HCV RNA released into the culture medium from 48-72 h [1]: decreased

C[C@@]1(O)[C@H](O)[C@@H](COP2(=O)OCC[C@@H](c3ccncc3)O2)O[C@H]1n1ccc2c(=O)[nH]c(N)nc21 (stereo partly drawn) [Compound 17.13, 2-amino-7-(cis-5′-O-[4-(S)-(pyridin-4-yl)-2-oxo-1,3,2-dioxaphosphorinan-2-yl]-2′-C methyl-beta-D-ribofuranosyl)-7H-pyrrolo[2,3-d]pyrimidin-4(3H)-one]
melting point: 138 to 141 °C

C[C@@]1(O)[C@H](O)[C@@H](COP2(=O)OCC[C@H](c3ccccc3)O2)O[C@H]1n1ccc2c(=O)[nH]c(N)nc21 (stereo partly drawn) [Compound 17.16, 2-amino-7-(cis-5′-O-[4-(R)-phenyl-2-oxo-1,3,2-dioxaphosphorinan-2-yl]-2′-C methyl-beta-D-ribofuranosyl)-7H-pyrrolo[2,3-d]pyrimidin-4(3)-one]
melting point: 128 to 133 °C

CC(=O)O[C@@H]1[C@@H](CO[P@@]2(=O)OCCC(c3ccncc3)O2)O[C@@H](n2ccc3c(N)ncnc32)[C@]1(C)O (some centres unmarked) [Compound 22.1]
melting point: 182 to 185 °C

CC(=O)O[C@@H]1[C@@H](CO[P@@]2(=O)OCC[C@@H](c3cccc(Cl)c3)O2)O[C@@H](n2ccc3c(N)ncnc32)[C@]1(C)O [Compound 22.2, 4-amino-7-(3′-O-acetyl-cis-5′-O-[4-(S)-(3-chlorophenyl)-2-oxo-1,3,2-dioxaphosphorinan-2-yl]-2′-C-methyl-beta-D-ribofuranosyl)-7H-pyrrolo[2,3-d]pyrimidine]
melting point: 90 to 93 °C
